From paper PMC6270453, “One Lignanoid Compound and Four Triterpenoid Compounds with Anti-Inflammatory Activity from the Leaves of Elaeagnus oldhamii Maxim” (Molecules, 2013)
In brackets after ≈: the same amount, converted by molar mass. Entries after “also recorded” stand apart in the source; their conditions may differ.

Tests used:
RAW264.7 cells = experiment: Cell viability (MTT) in the presence of LPS; format: cell-based, murine; details: for Cell Viability (% of Control): RAW264.7, 100 ng/mL LPS, 24 h, MTT, mean ± S.D.
Protocol: (§1) A murine macrophage cell line RAW264.7 (BCRC No. 60001) was purchased from the Bioresources Collection and Research Center (BCRC, Hsinchu, Taiwan) of the Food Industry Research and Development Institute (Hsinchu, Taiwan). Cells were cultured in plastic dishes containing Dulbecco’s Modified Eagle Medium (DMEM, Sigma) supplemented with 10% fetal bovine serum (FBS, Sigma) in a CO2 incubator (5% CO2 in air) at 37 °C and subcultured every 3 days at a dilution of 1:5 using 0.05% trypsin-0.02% EDTA in Ca^2+-, Mg^2+-free phosphate-buffered saline (DPBS).
Cells (2 × 10^5) were cultured in 96-well plate containing DMEM supplemented with 10% FBS for 1 day to become nearly confluent. Then cells were cultured with compounds 1–5 in the presence of 100 ng/mL LPS (lipopolysaccharide) for 24 h. After that, the cells were washed twice with DPBS and incubated with 100 μL of 0.5 mg/mL MTT for 2 h at 37 °C testing for cell viability. The medium was then discarded and 100 μL dimethyl sulfoxide (DMSO) was added. After 30-min incubation, absorbance at 570 nm was read using a microplate reader (Molecular Devices, Sunnyvale, CA, USA).

[1] = test system: LPS-induced NO production in macrophages (RAW264.7 cells); experiment: Measurement of nitric oxide/nitrite (Griess reaction) in LPS-stimulated macrophages; format: cell-based, murine; details: for NO Inhibition (% of Control) / No Level: LPS 100 ng/mL, 24 h, mean ± S.D.; for No Level: nitrite in medium, LPS alone 30.3 ± 2.2, in µM
Protocol: as §1
NO production was indirectly assessed by measuring the nitrite levels in the cultured media and serum determined by a colorimetric method based on the Griess reaction. The cells were incubated with different concentration of samples in the presence of LPS (100 ng/mL) at 37 °C for 24 h. Then, cells were dispensed into 96-well plates, and 100 μL of each supernatant was mixed with the same volume of Griess reagent (1% sulfanilamide, 0.1% naphthylethylenediamine dihydrochloride and 5% phosphoric acid) and incubated at room temperature for 10 min, the absorbance was measured at 540 nm with a Micro-Reader (Molecular Devices). By using sodium nitrite to generate a standard curve, the concentration of nitrite was measured form absorbance at 540 nm.
IC50 values were estimated using a non-linear regression algorithm (Sigma Plot 12.0; SPSS Inc. Chicago, IL, USA). Statistical evaluation was carried out by one-way ANOVA followed by Scheffe’s multiple range tests.

IC50 ([1]; Mus musculus, RAW264.7, 24 h, LPS-stimulated RAW264.7 cells, non-linear regression, read-out: IC50 for inhibition of nitrite production): ~10.3 µg/mL (≈ 31.4 µM)
Structure (SMILES): COc1cc([C@H]2Oc3cc(/C=C\CO)ccc3O[C@@H]2C)ccc1O [Compound 1, isoamericanol B]
Cell Viability (% of Control) (RAW264.7 cells; dose 2.5 μg/mL): 100.6 ± 5.9 % of Control
Cell Viability (% of Control) (RAW264.7 cells; dose 5 μg/mL): 97.6 ± 4.3 % of Control
Cell Viability (% of Control) (RAW264.7 cells; dose 10 μg/mL): 90.7 ± 3.3 % of Control
Cell Viability (% of Control) (RAW264.7 cells; dose 20 μg/mL): 88.8 ± 2.6 % of Control
Change of cell viability (in words) (RAW264.7 cells; tested concentrations 2.5 to 20 μg/mL): did not significantly change cell viability; also recorded: did not change significantly cell viability
NO Inhibition (% of Control) ([1]; dose 2.5 μg/mL): 42.0 ± 1.6 % of Control
No Level ([1]; dose 2.5 μg/mL): 17.6 ± 0.5
NO Inhibition (% of Control) ([1]; dose 5 μg/mL): 42.3 ± 2.6 % of Control
No Level ([1]; dose 5 μg/mL): 17.5 ± 08
NO Inhibition (% of Control) ([1]; dose 10 μg/mL): 49.7 ± 1.4 % of Control
No Level ([1]; dose 10 μg/mL): 15.2 ± 0.4
NO Inhibition (% of Control) ([1]; dose 20 μg/mL): 60.4 ± 1.3 % of Control
No Level ([1]; dose 20 μg/mL): 12.0 ± 0.4
